Results: paper PMC4503722, “Novel Phenotypic Outcomes Identified for a Public Collection of Approved Drugs from a Publicly Accessible Panel of Assays” (PLoS ONE, 2015)
Like-named read-outs stand apart in the source and are kept apart here.

Key:
[1] = tested on: endothelial tube formation in co-cultures of ECFCs and ADSCs treated with VEGF; experiment: cells; format: cell-based, human; conditions: for IC50: read-out: VEGF_ADSC\ECFC Angio CD31 TubeArea summarized IC50
[2] = tested on: ECFC/ADSC co-culture cell nuclei number; conditions: for IC50: read-out: VEGF_ADSC\ECFC Angio Hoechst NucArea summarized IC50
[3] = tested on: HeLa cells; experiment: cells; format: cell-based;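 for Hela CellCycMod PI 4N summarized IC50: value tracks stimulation of 4N DNA content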

Structure (SMILES) | VEGF_ADSC\ECFC Angio CD31 TubeArea IC50/EC50 [1] | VEGF_ADSC\ECFC Angio Hoechst NucArea IC50/EC50 [2] | IC50 [1] | IC50 [2] | also measured
C#C[C@]1(OC(C)=O)CC[C@H]2[C@@H]3CCC4=CC(=NO)CC[C@@H]4[C@H]3CC[C@@]21CC (mixture of isomers) [NCGC00344561-01] | > 10 µM | > 10 µM | – | – | –
CC(C)c1c(C(=O)Nc2ccccc2)c(-c2ccccc2)c(-c2ccc(F)cc2)n1CC[C@@H](O)C[C@@H](O)CC(=O)O [Atorvastatin, reference compound] | – | – | – | – | inhibition of endothelial tube / cord formation (in words) [1]: did not inhibit endothelial tube formation
CN(C)CCCN1c2ccccc2Sc2ccc(Cl)cc21 [NCGC00015273-19] | – | – | > 10 µM | > 10 µM | –
O=C1NCN(c2ccccc2)C12CCN(CCCC(c1ccc(F)cc1)c1ccc(F)cc1)CC2 [NCGC00015424-11] | – | – | – | – | IC50/EC50, VEGF_ADSC\ECFC Angio CD31 TubeArea (assay number 2) [1]: > 10 µM; IC50/EC50, VEGF_ADSC\ECFC Angio Hoechst NucArea (assay number 3) [2]: 8.086 µM
OCCN1CCN(CCCN2c3ccccc3Sc3ccc(C(F)(F)F)cc32)CC1 [NCGC00015436-11] | > 10 µM | > 10 µM | – | – | –
O=c1c(-c2ccc(O)cc2)coc2cc(O)cc(O)c12 [NCGC00015479-19] | – | – | – | – | IC50/EC50, VEGF_ADSC\ECFC Angio CD31 TubeArea (assay number 2) [1]: > 10 µM; IC50/EC50, VEGF_ADSC\ECFC Angio Hoechst NucArea (assay number 3) [2]: > 10 µM
Oc1ccc(O)cc1 [NCGC00015523-13] | – | – | > 10 µM | > 10 µM | –
CN(C)C(=O)Oc1cccc([N+](C)(C)C)c1.[Br-] [NCGC00015730-11] | > 10 µM | > 10 µM | – | – | –
OCCN1CCN(CCCN2c3ccccc3Sc3ccc(Cl)cc32)CC1 [NCGC00015826-13] | – | – | > 10 µM | > 10 µM | –
Cn1ccc2cc3c(cc21)CCN3C(=O)Nc1cccnc1 [NCGC00015917-06] | – | – | – | – | IC50/EC50, VEGF_ADSC\ECFC Angio CD31 TubeArea (assay number 2) [1]: > 10 µM; IC50/EC50, VEGF_ADSC\ECFC Angio Hoechst NucArea (assay number 3) [2]: > 10 µM
CC(C)(C)CC(C)(C)c1ccc(OCCOCC[N+](C)(C)Cc2ccccc2)cc1 [NCGC00016373-08] | – | – | 3.74 µM | – | –
Cc1cccc(C)c1NC(=O)CN1CCN(CCCC(c2ccc(F)cc2)c2ccc(F)cc2)CC1 [NCGC00016627-04] | – | – | – | – | IC50/EC50, VEGF_ADSC\ECFC Angio CD31 TubeArea (assay number 2) [1]: > 10 µM; IC50/EC50, VEGF_ADSC\ECFC Angio Hoechst NucArea (assay number 3) [2]: 9.37 µM
CN1CCC[C@@H]1CCO[C@](C)(c1ccccc1)c1ccc(Cl)cc1.O=C(O)/C=C/C(=O)O [NCGC00016710-05] | > 10 µM | > 10 µM | – | – | –
COc1ccc(CCN2CCC(Nc3nc4ccccc4n3Cc3ccc(F)cc3)CC2)cc1 [NCGC00016913-14] | > 10 µM | > 10 µM | – | – | –
O=c1oc2c(O)c(O)cc3c(=O)oc4c(O)c(O)cc1c4c23 [NCGC00017245-10] | > 10 µM | > 10 µM | – | – | –
Oc1ccc(/C=C/c2cc(O)cc(O)c2)cc1 [NCGC00017352-24] | – | – | – | – | IC50/EC50, VEGF_ADSC\ECFC Angio CD31 TubeArea (assay number 2) [1]: > 10 µM; IC50/EC50, VEGF_ADSC\ECFC Angio Hoechst NucArea (assay number 3) [2]: > 10 µM
CCOC(=O)C1=C[C@]2(CC)CCCN3CCc4c(n1c1ccccc41)[C@@H]32 [NCGC00018204-13] | – | – | – | – | IC50/EC50, VEGF_ADSC\ECFC Angio CD31 TubeArea (assay number 2) [1]: > 10 µM; IC50/EC50, VEGF_ADSC\ECFC Angio Hoechst NucArea (assay number 3) [2]: > 10 µM
CC(=O)Oc1cccc2c1C(=O)c1c(OC(C)=O)cc(C(=O)O)cc1C2=O [NCGC00018274-05] | – | – | – | – | IC50/EC50, VEGF_ADSC\ECFC Angio CD31 TubeArea (assay number 2) [1]: > 10 µM; IC50/EC50, VEGF_ADSC\ECFC Angio Hoechst NucArea (assay number 3) [2]: > 10 µM
O=C(c1ccc(F)cc1)C1CCN(CCn2c(=O)[nH]c3ccccc3c2=O)CC1 [NCGC00021146-09] | > 10 µM | > 10 µM | – | – | –
CCCCC(=O)O[C@H]1CC[C@H]2[C@@H]3CCc4cc(O)ccc4[C@@H]3CC[C@]12C [NCGC00022275-03] | – | – | – | – | IC50/EC50, VEGF_ADSC\ECFC Angio CD31 TubeArea (assay number 2) [1]: > 10 µM; IC50/EC50, VEGF_ADSC\ECFC Angio Hoechst NucArea (assay number 3) [2]: 8.298 µM
CC[C@@H]1C(=O)OC[C@@H]1Cc1cncn1C [NCGC00023339-16] | > 10 µM | > 10 µM | – | – | –
CCN1CCC[C@H]1CNC(=O)c1c(OC)ccc(Br)c1OC [NCGC00024870-06] | > 10 µM | > 10 µM | – | – | –
CC[N+](CC)(CC)CCOc1ccc(/C=C/c2ccccc2)cc1 [NCGC00025122-02] | – | – | > 10 µM | > 10 µM | –
Oc1ccc2[nH]cc(CCCCN3CC=C(c4ccccc4)CC3)c2c1 [NCGC00025216-03] | 4.0367 µM | > 10 µM | – | – | –
CS(=O)(=O)O.Cc1c(O)cccc1C(=O)N[C@@H](CSc1ccccc1)[C@H](O)CN1C[C@H]2CCCC[C@H]2C[C@H]1C(=O)NC(C)(C)C [NCGC00090782-06] | > 10 µM | > 10 µM | – | – | –
Nc1ccc(O)cc1 [NCGC00090816-05] | – | – | – | – | IC50/EC50, VEGF_ADSC\ECFC Angio CD31 TubeArea (assay number 2) [1]: > 10 µM; IC50/EC50, VEGF_ADSC\ECFC Angio Hoechst NucArea (assay number 3) [2]: > 10 µM

Structure (SMILES) | VEGF_ADSC\ECFC Angio CD31 TubeArea IC50/EC50 [1] | VEGF_ADSC\ECFC Angio Hoechst NucArea IC50/EC50 [2] | IC50 [1] | IC50 [2] | also measured
CCCCCCCCCCCC[N+](C)(C)CCOc1ccccc1 [NCGC00091010-03] | – | – | 3.38 µM | 7.29 µM | –
C#C[C@]1(O)CC[C@H]2[C@@H]3CCc4cc(O)ccc4[C@H]3CC[C@@]21C [NCGC00091533-10] | – | – | > 10 µM | > 10 µM | –
CN(C)C(=S)SSC(=S)N(C)C [NCGC00091563-12] | – | – | – | > 10 µM | –
CCCCC(CC)COC(=O)C(C#N)=C(c1ccccc1)c1ccccc1 (centres unmarked) [NCGC00091585-05] | > 10 µM | 3.289 µM | – | – | –
CC12CCC(CC1)C(C)(C)O2 [NCGC00091666-04] | – | – | > 10 µM | > 10 µM | –
O=C(O)c1ccc2[nH]cc(CCCCN3CC=C(c4ccccc4)CC3)c2c1 [NCGC00092328-02] | > 10 µM | > 10 µM | – | – | –
NC(=O)c1cccnc1 [NCGC00093354-05] | – | – | > 10 µM | > 10 µM | –
CCOc1ccc2nc3cc(N)ccc3c(N)c2c1 [NCGC00096056-02] | – | – | – | > 10 µM | IC50 ([3]; assay number 14, 2N, read-out: Hela CellCycMod PI 2N summarized IC50): > 10 µM; IC50 ([3]; assay number 15, S phase, read-out: Hela CellCycMod PI S Phase summarized IC50): > 10 µM; IC50 ([3]; assay number 16, 4N, read-out: Hela CellCycMod PI 4N summarized IC50): > 10 µM; IC50 ([3]; assay number 17, MI, read-out: Hela CellCycMod PI MI summarized IC50): > 10 µM; IC50 ([3]; assay number 18, cell number, read-out: Hela CellCycMod PI Cell Number summarized IC50): 2.11 µM
C[C@H]1O[C@@H](O[C@H]2[C@@H](O)C[C@H](O[C@H]3[C@@H](O)C[C@H](O[C@H]4CC[C@@]5(C)[C@H](CC[C@@H]6[C@@H]5CC[C@]5(C)[C@@H](C7=CC(=O)OC7)CC[C@]65O)C4)O[C@@H]3C)O[C@@H]2C)C[C@H](O)[C@@H]1O [NCGC00142623-04] | – | – | 0.011 µM | 0.103 µM | –
Oc1cc(Cl)ccc1Oc1ccc(Cl)cc1Cl [NCGC00159417-05] | – | – | > 10 µM | 8.1 µM | –
CC(=O)Oc1ccc(C2(c3ccc(OC(C)=O)cc3)C(=O)Nc3ccccc32)cc1 [NCGC00159420-04] | – | – | – | – | IC50/EC50, VEGF_ADSC\ECFC Angio CD31 TubeArea (assay number 2) [1]: > 10 µM; IC50/EC50, VEGF_ADSC\ECFC Angio Hoechst NucArea (assay number 3) [2]: > 10 µM
C[C@H]1O[C@@H](O[C@H]2CC[C@@]3(C)[C@H](CC[C@@H]4[C@@H]3C[C@@H](O)[C@]3(C)[C@@H](C5=CC(=O)OC5)CC[C@]43O)C2)C[C@H](O)[C@@H]1O[C@H]1C[C@H](O)[C@H](O[C@H]2C[C@H](O)[C@H](O[C@@H]3O[C@H](CO)[C@@H](O)[C@H](O)[C@H]3O)[C@@H](C)O2)[C@@H](C)O1 [NCGC00159441-03] | 0.0614 µM | 0.2987 µM | – | – | –
COC1=C(OC)C(=O)C(CCCCCCCCCCO)=C(C)C1=O [NCGC00160514-02] | > 10 µM | > 10 µM | – | – | –
O=C(N/N=C/c1ccccc1O)c1ccncc1 [NCGC00160648-02] | – | – | > 10 µM | > 10 µM | –
COc1ccc(/C=N/NC(=O)c2ccncc2)cc1OC [NCGC00160656-02] | – | – | > 10 µM | > 10 µM | –
O=C(CCN1CCC(c2ccccc2)C1)c1ccc2c(c1)OCCO2 (centres unmarked) [NCGC00160665-02] | > 10 µM | > 10 µM | – | – | –
CCCCCCCCOc1ccccc1C(=O)Nc1ccc(C(=O)OCC[N+](C)(CC)CC)cc1.[Br-] [NCGC00163507-03] | > 10 µM | 8.466 µM | – | – | –
O=[N+]([O-])C(Br)(CO)CO [NCGC00164057-03] | – | – | > 10 µM | > 10 µM | –
CCCOC(=O)c1cc(O)c(O)c(O)c1 [NCGC00164234-04] | – | – | > 10 µM | > 10 µM | –
OC[C@@H](O)[C@@H](O)[C@H](O)[C@@H](O)CO [NCGC00164353-05] | > 10 µM | > 10 µM | – | – | –
COc1cc(/C=C2\CCC/C(=C\c3ccc(O)c(OC)c3)C2=O)ccc1O [NCGC00164486-04] | – | – | > 10 µM | 6.98 µM | –
CCN(CC)C(=O)/C(C#N)=C/c1cc(O)c(O)c([N+](=O)[O-])c1 [NCGC00164555-03] | > 10 µM | > 10 µM | – | – | –
Cc1c(C(=O)NN2CCCCC2)nn(-c2ccc(Cl)cc2Cl)c1-c1ccc(Cl)cc1 [NCGC00164572-02] | – | – | – | – | IC50/EC50, VEGF_ADSC\ECFC Angio CD31 TubeArea (assay number 2) [1]: > 10 µM; IC50/EC50, VEGF_ADSC\ECFC Angio Hoechst NucArea (assay number 3) [2]: > 10 µM
CCCCCCCCCCC[C@@H](C[C@@H]1OC(=O)[C@H]1CCCCCC)OC(=O)[C@H](CC(C)C)NC=O [NCGC00165856-03] | > 10 µM | > 10 µM | – | – | –
S=C=Nc1ccc(N=C=S)cc1 [NCGC00166077-02] | – | – | – | – | IC50/EC50, VEGF_ADSC\ECFC Angio CD31 TubeArea (assay number 2) [1]: > 10 µM; IC50/EC50, VEGF_ADSC\ECFC Angio Hoechst NucArea (assay number 3) [2]: > 10 µM
CC[C@H](C)C(=O)O[C@H]1C[C@H](O)C=C2C=C[C@H](C)[C@H](CC[C@@H](O)C[C@@H](O)CC(=O)O)[C@H]21 [pravastatin, reference compound] | – | – | – | – | inhibition of endothelial tube / cord formation (in words) ([1]; ECFC/ADSC co-culture): did not inhibit endothelial tube formation
